According to article PMC2719696, “Kinetics and Cellular Site of Glycolipid Loading Control the Outcome of Natural Killer T Cell Activation” (Immunity, 2009):

target: T1, mCD1d (Mus musculus, UniProt P11609); test: mAb L363 surface staining of JAWS II cells by flow cytometry (kinetics and pulse-chase); type: cell-based; conditions: JAWS II cells pulsed 500 nM for 1.5 hr, 8 hr chase
T1 construct: host or cells: JAWS II (C57BL/6.Trp53-/- derived dendritic cell line)
T1 sequence (P11609 22-336): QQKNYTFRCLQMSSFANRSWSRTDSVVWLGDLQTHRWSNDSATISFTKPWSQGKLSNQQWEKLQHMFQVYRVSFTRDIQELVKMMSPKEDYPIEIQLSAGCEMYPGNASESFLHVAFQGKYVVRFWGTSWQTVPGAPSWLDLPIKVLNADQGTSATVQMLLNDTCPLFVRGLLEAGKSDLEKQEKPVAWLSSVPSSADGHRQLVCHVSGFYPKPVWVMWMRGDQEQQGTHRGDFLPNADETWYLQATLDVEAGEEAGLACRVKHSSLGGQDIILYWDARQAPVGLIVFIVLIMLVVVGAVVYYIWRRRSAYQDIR
T1 sequence (P01887 21-119 partner): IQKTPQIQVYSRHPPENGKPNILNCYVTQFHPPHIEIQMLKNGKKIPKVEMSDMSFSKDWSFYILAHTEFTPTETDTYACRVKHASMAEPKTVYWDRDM
Description: We studied this possibility directly by using a monoclonal antibody (L363) that specifically recognizes complexes of αGalCer bound to mCD1d ([Yu et al., 2007]). Mouse splenocytes were cultured with either αGalCer-C26:0 or representative Th2 cell-type cytokine-biasing analogs, and L363 staining was assessed on various cell types (Figure 3A). […] This was investigated further with more detailed kinetic studies in which immortalized mouse DC line JAWS II was cultured with each glycolipid and assessed for L363 surface staining at 0.5, 4, and 18 hr (Figure 3B). There was a striking correlation between rapid kinetics of glycolipid association with mCD1d and the ability to induce a Th2 cell-type cytokine response. […] In contrast, most analogs inducing Th2 cell-type cytokine responses gave strong L363 staining by 0.5 hr, which increased modestly or not at all with longer incubation. […] Experiments using responses of iNKT cells to analyze the kinetics of cell-surface appearance gave analogous results (Figure S5).
Figure 3 Direct Analysis of Presentation of αGalCer Analogs with Complex-Specific mAb Staining (A) Mouse splenocytes cultured with either vehicle only (0.02% DMSO) or with the indicated αGalCer analogs (100 nM) were harvested after 1 hr or 19 hr of incubation and stained with mAb L363 or anti-CD1d mAb 1B1 and with mAbs specific for CD11c, CD19, and F4/80 (Figure S4). Filled histograms show L363 staining of cells cultured with vehicle only, and open histograms show cells cultured with indicated glycolipids. At the left, the total CD1d staining with mAb 1B1 (open histograms) compared to isotype control mAb (filled histograms) are shown on cells cultured for 19 hr with DMSO only. (B) JAWS II cells were incubated with glycolipids (250 nM) for various times ranging from 0.5–18 hr as indicated, stained with mAb L363, and analyzed by flow cytometry. Dashed line histograms show L363 staining of cells incubated with medium only, and bold histograms show L363 staining of cells incubated with αGalCer analogs. (C) JAWS II cells were pulsed with indicated αGalCer analogs (500 nM) for 1.5 hr, washed extensively, and recultured at 37°C for various chase times. Upon harvesting, cells were placed on ice and subsequently stained with mAb L363 for flow cytometry analysis. Histogram overlays show L363 staining of cells pulsed initially with vehicle only (DMSO, dashed histograms) or with αGalCer analog (bold histograms). […] All results shown (A, B, and C) were representative of at least two independent experiments.
Recombinant CD1d proteins were produced and assembled into tetramers for staining as previously described ([Forestier et al., 2007]). To obtain optimally loaded tetramers for iNKT cell staining, we loaded mCD1d with αGalCer-C26:0 and -C24:0 in the presence of 0.05% Triton X-100 (Sigma-Aldrich) and loaded mCD1d with other glycolipids without Triton X-100. For loading of hCD1d, 0.05% Triton X-100 was included with αGalCer-C26:0, -C24:0, and -C20:4, whereas other glycolipids were loaded without Triton X-100. For surface staining of αGalCer/mCD1d complexes, murine splenocytes or JAWS II cells were incubated with 250 nM glycolipids for various times and then 0.2 μg/ml mAb L363 (Alexa Fluor 647 or biotin conjugated) was added directly to the culture for an additional 30 min at RT. In some experiments, additional fluorochrome-conjugated antibodies specific for leukocyte subpopulations were added for the last 15 min of incubation. All samples were analyzed with the FACSCalibur flow cytometer (BD Biosciences).

Compound | formation of mCD1d-αGalCer surface complexes in pulse-chase analysis
CCCCCCCCCCCCCCC(O)C(O)C(COC1OC(CO)C(O)C(O)C1O)NC(=O)CCCCCCCCC (stereo not drawn) [αGalCer-C10:0] | the complexes formed rapidly and began declining immediately during the chase period
CCCCCC=CCC=CCCCCCCCCCC(=O)NC(COC1OC(CO)C(O)C(O)C1O)C(O)C(O)CCCCCCCCCCCCCC (stereo not drawn) [αGalCer-C20:2] | the complexes formed rapidly and began declining immediately during the chase period
CCCCCCCCCCCCCCCCCCCCCCCCCC(=O)NC(COC1OC(CO)C(O)C(O)C1O)C(O)C(O)CCCCCCCCCCCCCC (stereo not drawn) [αGalCer-C26:0, reference compound] | formed slowly

same assay, conditions: JAWS II cells, 250 nM glycolipid, 0.5, 4 and 18 hr

Compound | L363 surface staining over time
CCCCCCCCCCCCCCCCCCCCCCCC(=O)NC(COC1OC(CO)C(O)C(O)C1O)C(O)C(O)CCCCC (stereo not drawn) [OCH] | very weak L363 reactivity
CCCCCCCCCCCCCCCCCCCCCCCC(=O)NC(COC1OC(CO)C(O)C(O)C1O)C(O)C(O)CCCCCCCCCCCCCC (stereo not drawn) [αGalCer-C24:0] | strong L363 staining was detected only at 18 hr
CCCCCCCCCCCCCCCCCCCCCCCCCC(=O)NC(COC1OC(CO)C(O)C(O)C1O)C(O)C(O)CCCCCCCCCCCCCC (stereo not drawn) [αGalCer-C26:0, reference compound] | strong L363 staining was detected only at 18 hr
